Data published in patent US9738634B2, “Heterocyclic amide compound and herbicide” (SYNGENTA PARTICIPATIONS AG, priority 2013, dated 2017).

Tests used:
Format in all cases: in vivo
Indian mallow [1] = experiment: Test Example 4: weedkilling efficacy by foliar treatment; K: Indian mallow; conditions: treatment dosage 315 g/ha
Summary of the method: (§1)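 Seeds are spot-sown into sterilized diluvial soil and covered with about 1.5 cm of soil. After 14 days' greenhouse growth at 25 to 30° C, plants are sprayed on stems and leaves with diluted emulsion at the stated g/ha rate, then scored at 3 weeks.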

directly sown rice [2] = experiment: Test Example 4: foliar treatment, effect on crop; b: directly sown rice; conditions: treatment dosage 315 g/ha
Summary of the method: as §1

soybean [3] = experiment: Test Example 3: soil treatment, effect on crop; d: soybean; conditions: treatment dosage 315 g/ha
Summary of the method: (§2)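 Crop and weed responses were judged three weeks after a uniform surface spray of the water-diluted emulsion at the given g/ha rate. Seeds sat beneath about 1.5 cm of sterilized diluvial soil, and boxes stood in a greenhouse at 25 to 30° C.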

wheat [4] = experiment: Test Example 4: foliar treatment, effect on crop; e: wheat; conditions: treatment dosage 315 g/ha
Summary of the method: as §1

birds-eye speedwell = experiment: Test Example 4: weedkilling efficacy by foliar treatment; p: birds-eye speedwell; conditions: treatment dosage 315 g/ha
Summary of the method: as §1

redroot pigweed [5] = experiment: Test Example 3: weedkilling efficacy through soil treatment; L: redroot pigweed; conditions: treatment dosage 315 g/ha
Summary of the method: as §2

barnyard grass [6] = experiment: Test Example 1: weedkilling efficacy, preemergent weed treatment in the submerged state; A: barnyard grass; conditions: treatment dosage 252 g/ha
Summary of the method: (§3)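 Pre-emergence application onto floodwater (4 cm, alluvial soil) on the day of sowing, dose expressed as g/ha from diluted emulsion formulation. Weeds sown with 2.5-leaf transplanted rice as crop; plants held at 25–30 °C in greenhouse and scored against assessment criteria after 3 weeks.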

wild oat [7] = experiment: Test Example 4: weedkilling efficacy by foliar treatment; G: wild oat; conditions: treatment dosage 315 g/ha
Summary of the method: as §1

fig-leafed goosefoot [8] = experiment: Test Example 3: weedkilling efficacy through soil treatment; M: fig-leafed goosefoot; conditions: treatment dosage 315 g/ha
Summary of the method: as §2

Italian ryegrass [9] = experiment: Test Example 4: weedkilling efficacy by foliar treatment; I: Italian ryegrass; conditions: treatment dosage 315 g/ha
Summary of the method: as §1

bulrush [10] = experiment: Test Example 1: weedkilling efficacy, preemergent weed treatment in the submerged state; B: bulrush; conditions: treatment dosage 252 g/ha
Summary of the method: as §3

chickweed [11] = experiment: Test Example 3: weedkilling efficacy through soil treatment; N: chickweed; conditions: treatment dosage 315 g/ha
Summary of the method: as §2

beet [12] = experiment: Test Example 4: foliar treatment, effect on crop; f: beet; conditions: treatment dosage 315 g/ha
Summary of the method: as §1

Indian mallow [13] = experiment: Test Example 3: weedkilling efficacy through soil treatment; K: Indian mallow; conditions: treatment dosage 315 g/ha
Summary of the method: as §2

beet [14] = experiment: Test Example 3: soil treatment, effect on crop; f: beet; conditions: treatment dosage 315 g/ha
Summary of the method: as §2

directly sown rice [15] = experiment: Test Example 3: soil treatment, effect on crop; b: directly sown rice; conditions: treatment dosage 315 g/ha
Summary of the method: as §2

corn [16] = experiment: Test Example 4: foliar treatment, effect on crop; c: corn; conditions: treatment dosage 315 g/ha
Summary of the method: as §1

green foxtail [17] = experiment: Test Example 3: weedkilling efficacy through soil treatment; E: green foxtail; conditions: treatment dosage 315 g/ha
Summary of the method: as §2

wheat [18] = experiment: Test Example 3: soil treatment, effect on crop; e: wheat; conditions: treatment dosage 315 g/ha
Summary of the method: as §2

transplanted rice = experiment: Test Example 1: preemergent weed treatment in the submerged state, effect on crop; a: transplanted rice; conditions: treatment dosage 252 g/ha
Summary of the method: as §3

crabgrass [19] = experiment: Test Example 3: weedkilling efficacy through soil treatment; D: crabgrass; conditions: treatment dosage 315 g/ha
Summary of the method: as §2

catchweed = experiment: Test Example 4: weedkilling efficacy by foliar treatment; O: catchweed; conditions: treatment dosage 315 g/ha
Summary of the method: as §1

barnyard grass [20] = experiment: Test Example 2: weedkilling efficacy, growth period weed treatment in the submerged state; A: barnyard grass; conditions: treatment dosage 252 g/ha
Summary of the method: (§4)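 Weeds treated at the 1-2 leaf stage by application of diluted emulsion onto floodwater (4 cm depth, alluvial soil) at specified g/ha. Grown in greenhouse at 25 to 30° C; herbicidal effect rated three weeks after treatment.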

green foxtail [21] = experiment: Test Example 4: weedkilling efficacy by foliar treatment; E: green foxtail; conditions: treatment dosage 315 g/ha
Summary of the method: as §1

wild oat [22] = experiment: Test Example 3: weedkilling efficacy through soil treatment; G: wild oat; conditions: treatment dosage 315 g/ha
Summary of the method: as §2

crabgrass [23] = experiment: Test Example 4: weedkilling efficacy by foliar treatment; D: crabgrass; conditions: treatment dosage 315 g/ha
Summary of the method: as §1

redroot pigweed [24] = experiment: Test Example 4: weedkilling efficacy by foliar treatment; L: redroot pigweed; conditions: treatment dosage 315 g/ha
Summary of the method: as §1

oval-leafed pondweed [25] = experiment: Test Example 2: weedkilling efficacy, growth period weed treatment in the submerged state; C: oval-leafed pondweed; conditions: treatment dosage 252 g/ha
Summary of the method: as §4

bulrush [26] = experiment: Test Example 2: weedkilling efficacy, growth period weed treatment in the submerged state; B: bulrush; conditions: treatment dosage 252 g/ha
Summary of the method: as §4

Italian ryegrass [27] = experiment: Test Example 3: weedkilling efficacy through soil treatment; I: Italian ryegrass; conditions: treatment dosage 315 g/ha
Summary of the method: as §2

chickweed [28] = experiment: Test Example 4: weedkilling efficacy by foliar treatment; N: chickweed; conditions: treatment dosage 315 g/ha
Summary of the method: as §1

black-grass [29] = experiment: Test Example 4: weedkilling efficacy by foliar treatment; H: black-grass; conditions: treatment dosage 315 g/ha
Summary of the method: as §1

black-grass [30] = experiment: Test Example 3: weedkilling efficacy through soil treatment; H: black-grass; conditions: treatment dosage 315 g/ha
Summary of the method: as §2

oval-leafed pondweed [31] = experiment: Test Example 1: weedkilling efficacy, preemergent weed treatment in the submerged state; C: oval-leafed pondweed; conditions: treatment dosage 252 g/ha
Summary of the method: as §3

fig-leafed goosefoot [32] = experiment: Test Example 4: weedkilling efficacy by foliar treatment; M: fig-leafed goosefoot; conditions: treatment dosage 315 g/ha
Summary of the method: as §1

corn [33] = experiment: Test Example 3: soil treatment, effect on crop; c: corn; conditions: treatment dosage 315 g/ha
Summary of the method: as §2

soybean [34] = experiment: Test Example 4: foliar treatment, effect on crop; d: soybean; conditions: treatment dosage 315 g/ha
Summary of the method: as §1

Compound: CC1=C(c2ccccc2)C(=O)N(C(C)(C)C(=O)Nc2cc(Cl)cc(Cl)n2)CO1 [B-2-34]
- K (Indian mallow) weedkilling efficacy grade (Indian mallow [1]): 5 (weed kill ratio 90% or more, (practically complete withering))
- b (directly sown rice) effect on crop grade (directly sown rice [2]): 5 (weed kill ratio 90% or more, (practically complete withering))
- d (soybean) effect on crop grade (soybean [3]): 1 (weed kill ratio 5% or more, less than 20%)
- e (wheat) effect on crop grade (wheat [4]): 1 (weed kill ratio 5% or more, less than 20%)
- P (birds-eye speedwell) weedkilling efficacy grade (birds-eye speedwell): 3 (weed kill ratio 40% or more, less than 70%)
- L (redroot pigweed) weedkilling efficacy grade (redroot pigweed [5]): 5 (weed kill ratio 90% or more, (practically complete withering))
- A (barnyard grass) weedkilling efficacy grade (barnyard grass [6]): 5 (weed kill ratio 90% or more, (practically complete withering))
- G (wild oat) weedkilling efficacy grade (wild oat [7]): 5 (weed kill ratio 90% or more, (practically complete withering))
- M (fig-leafed goosefoot) weedkilling efficacy grade (fig-leafed goosefoot [8]): 4 (weed kill ratio 70% or more, less than 90%)
- I (Italian ryegrass) weedkilling efficacy grade (Italian ryegrass [9]): 5 (weed kill ratio 90% or more, (practically complete withering))
- B (bulrush) weedkilling efficacy grade (bulrush [10]): 5 (weed kill ratio 90% or more, (practically complete withering))
- N (chickweed) weedkilling efficacy grade (chickweed [11]): 5 (weed kill ratio 90% or more, (practically complete withering))
- f (beet) effect on crop grade (beet [12]): 4 (weed kill ratio 70% or more, less than 90%)
- K (Indian mallow) weedkilling efficacy grade (Indian mallow [13]): 5 (weed kill ratio 90% or more, (practically complete withering))
- f (beet) effect on crop grade (beet [14]): 5 (weed kill ratio 90% or more, (practically complete withering))
- b (directly sown rice) effect on crop grade (directly sown rice [15]): 5 (weed kill ratio 90% or more, (practically complete withering))
- c (corn) effect on crop grade (corn [16]): 3 (weed kill ratio 40% or more, less than 70%)
- E (green foxtail) weedkilling efficacy grade (green foxtail [17]): 5 (weed kill ratio 90% or more, (practically complete withering))
- e (wheat) effect on crop grade (wheat [18]): 1 (weed kill ratio 5% or more, less than 20%)
- a (transplanted rice) effect on crop grade (transplanted rice): 0 (weed kill ratio 5% or less (practically no effect))
- D (crabgrass) weedkilling efficacy grade (crabgrass [19]): 5 (weed kill ratio 90% or more, (practically complete withering))
- O (catchweed) weedkilling efficacy grade (catchweed): 0 (weed kill ratio 5% or less (practically no effect))
- A (barnyard grass) weedkilling efficacy grade (barnyard grass [20]): 5 (weed kill ratio 90% or more, (practically complete withering))
- E (green foxtail) weedkilling efficacy grade (green foxtail [21]): 5 (weed kill ratio 90% or more, (practically complete withering))
- G (wild oat) weedkilling efficacy grade (wild oat [22]): 5 (weed kill ratio 90% or more, (practically complete withering))
- D (crabgrass) weedkilling efficacy grade (crabgrass [23]): 5 (weed kill ratio 90% or more, (practically complete withering))
- L (redroot pigweed) weedkilling efficacy grade (redroot pigweed [24]): 4 (weed kill ratio 70% or more, less than 90%)
- C (oval-leafed pondweed) weedkilling efficacy grade (oval-leafed pondweed [25]): 5 (weed kill ratio 90% or more, (practically complete withering))
- B (bulrush) weedkilling efficacy grade (bulrush [26]): 5 (weed kill ratio 90% or more, (practically complete withering))
- I (Italian ryegrass) weedkilling efficacy grade (Italian ryegrass [27]): 5 (weed kill ratio 90% or more, (practically complete withering))
- N (chickweed) weedkilling efficacy grade (chickweed [28]): 3 (weed kill ratio 40% or more, less than 70%)
- H (black-grass) weedkilling efficacy grade (black-grass [29]): 5 (weed kill ratio 90% or more, (practically complete withering))
- H (black-grass) weedkilling efficacy grade (black-grass [30]): 5 (weed kill ratio 90% or more, (practically complete withering))
- C (oval-leafed pondweed) weedkilling efficacy grade (oval-leafed pondweed [31]): 5 (weed kill ratio 90% or more, (practically complete withering))
- M (fig-leafed goosefoot) weedkilling efficacy grade (fig-leafed goosefoot [32]): 3 (weed kill ratio 40% or more, less than 70%)
- c (corn) effect on crop grade (corn [33]): 2 (weed kill ratio 20% or more, less than 40%)
- d (soybean) effect on crop grade (soybean [34]): 5 (weed kill ratio 90% or more, (practically complete withering))

Compound: CC1=C(c2ccccc2)C(=O)N(C(C)(C)C(=O)Nc2ccnc(Cl)c2)CO1 [B-4-03]
- K (Indian mallow) weedkilling efficacy grade (Indian mallow [1]): 4 (weed kill ratio 70% or more, less than 90%)
- b (directly sown rice) effect on crop grade (directly sown rice [2]): 5 (weed kill ratio 90% or more, (practically complete withering))
- d (soybean) effect on crop grade (soybean [3]): 3 (weed kill ratio 40% or more, less than 70%)
- e (wheat) effect on crop grade (wheat [4]): 0 (weed kill ratio 5% or less (practically no effect))
- P (birds-eye speedwell) weedkilling efficacy grade (birds-eye speedwell): 4 (weed kill ratio 70% or more, less than 90%)
- L (redroot pigweed) weedkilling efficacy grade (redroot pigweed [5]): 5 (weed kill ratio 90% or more, (practically complete withering))
- A (barnyard grass) weedkilling efficacy grade (barnyard grass [6]): 5 (weed kill ratio 90% or more, (practically complete withering))
- G (wild oat) weedkilling efficacy grade (wild oat [7]): 5 (weed kill ratio 90% or more, (practically complete withering))
- M (fig-leafed goosefoot) weedkilling efficacy grade (fig-leafed goosefoot [8]): 5 (weed kill ratio 90% or more, (practically complete withering))
- I (Italian ryegrass) weedkilling efficacy grade (Italian ryegrass [9]): 5 (weed kill ratio 90% or more, (practically complete withering))
- B (bulrush) weedkilling efficacy grade (bulrush [10]): 5 (weed kill ratio 90% or more, (practically complete withering))
- N (chickweed) weedkilling efficacy grade (chickweed [11]): 3 (weed kill ratio 40% or more, less than 70%)
- f (beet) effect on crop grade (beet [12]): 4 (weed kill ratio 70% or more, less than 90%)
- K (Indian mallow) weedkilling efficacy grade (Indian mallow [13]): 3 (weed kill ratio 40% or more, less than 70%)
- f (beet) effect on crop grade (beet [14]): 4 (weed kill ratio 70% or more, less than 90%)
- c (corn) effect on crop grade (corn [16]): 4 (weed kill ratio 70% or more, less than 90%)
- E (green foxtail) weedkilling efficacy grade (green foxtail [17]): 5 (weed kill ratio 90% or more, (practically complete withering))
- e (wheat) effect on crop grade (wheat [18]): 1 (weed kill ratio 5% or more, less than 20%)
- a (transplanted rice) effect on crop grade (transplanted rice): 4 (weed kill ratio 70% or more, less than 90%)
- D (crabgrass) weedkilling efficacy grade (crabgrass [19]): 5 (weed kill ratio 90% or more, (practically complete withering))
- O (catchweed) weedkilling efficacy grade (catchweed): 5 (weed kill ratio 90% or more, (practically complete withering))
- A (barnyard grass) weedkilling efficacy grade (barnyard grass [20]): 4 (weed kill ratio 70% or more, less than 90%)
- E (green foxtail) weedkilling efficacy grade (green foxtail [21]): 5 (weed kill ratio 90% or more, (practically complete withering))
- G (wild oat) weedkilling efficacy grade (wild oat [22]): 4 (weed kill ratio 70% or more, less than 90%)
- D (crabgrass) weedkilling efficacy grade (crabgrass [23]): 5 (weed kill ratio 90% or more, (practically complete withering))
- L (redroot pigweed) weedkilling efficacy grade (redroot pigweed [24]): 3 (weed kill ratio 40% or more, less than 70%)
- C (oval-leafed pondweed) weedkilling efficacy grade (oval-leafed pondweed [25]): 4 (weed kill ratio 70% or more, less than 90%)
- B (bulrush) weedkilling efficacy grade (bulrush [26]): 5 (weed kill ratio 90% or more, (practically complete withering))
- I (Italian ryegrass) weedkilling efficacy grade (Italian ryegrass [27]): 5 (weed kill ratio 90% or more, (practically complete withering))
- N (chickweed) weedkilling efficacy grade (chickweed [28]): 1 (weed kill ratio 5% or more, less than 20%)
- H (black-grass) weedkilling efficacy grade (black-grass [29]): 5 (weed kill ratio 90% or more, (practically complete withering))
- H (black-grass) weedkilling efficacy grade (black-grass [30]): 5 (weed kill ratio 90% or more, (practically complete withering))
- C (oval-leafed pondweed) weedkilling efficacy grade (oval-leafed pondweed [31]): 5 (weed kill ratio 90% or more, (practically complete withering))
- M (fig-leafed goosefoot) weedkilling efficacy grade (fig-leafed goosefoot [32]): 3 (weed kill ratio 40% or more, less than 70%)
- c (corn) effect on crop grade (corn [33]): 2 (weed kill ratio 20% or more, less than 40%)
- d (soybean) effect on crop grade (soybean [34]): 4 (weed kill ratio 70% or more, less than 90%)
